From patent publication US20130281465A1, “PYRAZOLE DERIVATIVE” (TAISHO PHARMACEUTICAL CO., LTD., priority 2010, published 2013)

Experiments:
[1] = target: T1, orexin type 2 receptor (hOX2R) (Homo sapiens, UniProt O43614); test: Orexin receptor antagonistic activity, intracellular Ca2+ fluorescence (FDSS) in CHO cells expressing hOX2R; type: cell-based; conditions: CHO cells forced to express hOX2R; orexin-A analogue peptide ligand 3 nM; Fluo-4 maximum fluorescence; read-out: IC50 value OX2R
T1 construct: expressed in transfected cells; host or cells: Chinese hamster ovary (CHO) cells
T1 sequence (O43614 1-444): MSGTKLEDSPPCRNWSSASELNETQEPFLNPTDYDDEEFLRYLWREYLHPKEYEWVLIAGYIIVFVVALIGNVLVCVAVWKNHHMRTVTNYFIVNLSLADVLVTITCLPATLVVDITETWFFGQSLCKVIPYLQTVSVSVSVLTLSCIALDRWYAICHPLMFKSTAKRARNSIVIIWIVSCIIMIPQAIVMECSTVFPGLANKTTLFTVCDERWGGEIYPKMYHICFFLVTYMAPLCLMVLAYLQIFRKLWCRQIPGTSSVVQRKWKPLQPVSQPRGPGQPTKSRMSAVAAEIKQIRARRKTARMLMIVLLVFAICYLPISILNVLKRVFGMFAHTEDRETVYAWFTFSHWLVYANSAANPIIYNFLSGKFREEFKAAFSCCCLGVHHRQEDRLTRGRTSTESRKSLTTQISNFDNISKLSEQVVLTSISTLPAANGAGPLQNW
Description: (§1) The antagonistic activity of each test compound against human orexin type 1 receptor (hOX1R) and orexin type 2 receptor (hOX2R) was performed as described in the literature with a modification (Toshikatsu Okumura et al., Biochemical and Biophysical Research Communications 280, 976-981, 2001). Chinese hamster ovary (CHO) cells forced to express hOX1R or hOX2R were seeded at 20,000 cells/well on a 96 well Black clear bottom plates (Nunc) and cultured for 16 hours under conditions of 37° C. and 5% CO2 using a Ham's F-12 medium containing 0.1 mM MEM non-essential amino acids, 0.5 mg/ml G418, and 10% fetal bovine serum (all from Invitrogen Corp.). After removal of the medium, 100 μL of the assay buffer (25 mM HEPES (Dojindo Laboratories), Hanks' balanced salt solution (Invitrogen Corp.), 0.1% bovine serum albumin, 2.5 mM probenecid, 200 μg/ml Amaranth (all from Sigma-Aldrich Corp.), pH 7.4) containing 0.5 μM Fluo-4AM ester (Dojindo Laboratories) was added thereto, and the cells were incubated for 60 minutes under conditions of 37° C. and 5% CO2. After removal of the buffer solution for assay containing Fluo-4AM ester, the test compound was dissolved at a concentration of 10 mM in dimethyl sulfoxide and diluted with the assay buffer, and 150 μL of the diluted solution was then added to each wells, which were then incubated for 30 minutes.
(§2) A peptide (Pyr-[…]11e-Leu-Thr-Leu-NH2; Peptide Institute, Inc.) substituted 2 amino acids of human orexin-A was diluted with the assay buffer to 300 pM (final concentration for hOX1R) or 3 nM (final concentration for hOX2R). 50 μL of this ligand solution was added thereto to start reaction. During the reaction, the fluorescence value of each well was measured every one second for 3 minutes using Functional Drug Screening System (FDSS; manufactured by Hamamatsu Photonics K.K.), and antagonistic activity was determined with the maximum fluorescence value as an index for intracellular Ca^2+ concentration. The antagonistic activity of the test compound was calculated with the fluorescence value of a well supplemented with only a dilution buffer solution as 100% and the fluorescence value of a well supplemented with a buffer solution containing neither the ligand nor the compound as 0%, and determined in terms of 50% inhibitory concentration (IC50 value) from fluorescence values derived from the test compound added at varying concentrations.

[2] = target: T2, human orexin type 1 receptor (hOX1R) (Homo sapiens, UniProt O43613); test: Orexin receptor antagonistic activity, intracellular Ca2+ fluorescence (FDSS) in CHO cells expressing hOX1R; type: cell-based; conditions: CHO cells forced to express hOX1R; orexin-A analogue peptide ligand 300 pM; Fluo-4 maximum fluorescence; read-out: IC50 value OX1R
T2 construct: expressed in transfected cells; host or cells: Chinese hamster ovary (CHO) cells
T2 sequence (O43613 1-425): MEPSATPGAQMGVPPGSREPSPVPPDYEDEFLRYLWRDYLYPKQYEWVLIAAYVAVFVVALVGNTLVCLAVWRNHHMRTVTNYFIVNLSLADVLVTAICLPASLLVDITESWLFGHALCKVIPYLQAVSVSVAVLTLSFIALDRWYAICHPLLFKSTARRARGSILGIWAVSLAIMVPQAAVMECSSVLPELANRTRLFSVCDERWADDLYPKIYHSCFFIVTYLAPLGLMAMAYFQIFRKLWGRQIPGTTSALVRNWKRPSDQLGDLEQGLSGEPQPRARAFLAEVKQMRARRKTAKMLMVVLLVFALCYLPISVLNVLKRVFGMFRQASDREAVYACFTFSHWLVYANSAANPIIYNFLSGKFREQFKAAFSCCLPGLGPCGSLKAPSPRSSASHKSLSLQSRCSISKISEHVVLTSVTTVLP
Description: as §1, §2

IC50 [1]	IC50 [2]	Compound
7.8 nM	1.5 nM	CCN(CCn1ccc(-c2ccc(F)c(F)c2)n1)C(=O)c1cc(F)ccc1-c1ncccn1 [Example 53, N-{2-[3-(3,4-difluorophenyl)-1H-pyrazol-1-yl]ethyl}-N-ethyl-5-fluoro-2-(pyrimidin-2-yl)benzamide]
19.2 nM	2 nM	CCN(CCn1ccc(-c2ccc(F)cc2)n1)C(=O)c1cc(F)ccc1-c1ncccn1 [Example 54, N-ethyl-5-fluoro-N-{2-[3-(4-fluorophenyl)-1H-pyrazol-1-yl]ethyl}-2-(pyrimidin-2-yl)benzamide]
140 nM	78.9 nM	CCN(CCn1ccc(-c2cccc(C(F)(F)F)n2)n1)C(=O)c1ccccc1-c1ncccn1 [Example 58, N-ethyl-(pyrimidin-2-yl)-N-(2-{3-[6-(trifluoromethyl)pyridin-2-yl]-1H-pyrazol-1-yl}ethyl)benzamide]
5.6 nM	1.9 nM	CCN(CCn1ccc(-c2ccc(F)c(F)c2)n1)C(=O)c1ccccc1-c1ncccn1 [Example 59, N-{2-[3-(3,4-difluorophenyl)-1H-pyrazol-1-yl]ethyl}-N-ethyl-2-(pyrimidin-2-yl)benzamide]
127 nM	21.9 nM	CCN(CCn1ccc(-c2cc(C(F)(F)F)ccn2)n1)C(=O)c1cc(C)ccc1-n1nccn1 [Example 60, N-ethyl-5-methyl-2-(2H-1,2,3-triazol-2-yl)-N-(2-{3-[4-(trifluoromethyl)pyridin-2-yl]-1H-pyrazol-1-yl}ethyl)benzamide]

Further lines, the molecule ahead of its results:

Compound	IC50 [1]	IC50 [2]
CCN(CCn1ccc(-c2ccc(C(F)(F)F)cn2)n1)C(=O)c1cc(C)ccc1-n1nccn1 [Example 51, N-ethyl-5-methyl-2-(2H-1,2,3-triazol-2-yl)-N-(2-{3-[5-(trifluoromethyl)pyridin-2-yl]-1H-pyrazol-1-yl}ethyl)benzamide]	394 nM	50.9 nM
CCN(CCn1ccc(-c2cccc(C(F)(F)F)n2)n1)C(=O)c1cc(C)ccc1-n1nccn1 [Example 52, N-ethyl-5-methyl-2-(2H-1,2,3-triaz ° 1-2-yl)-N-(2-{3-[6-(trifluoromethyl)pyridin-2-yl]-1H-pyrazol-1-yl}ethyl)benzamide]	1.3 nM	1.1 nM
CCN(CCn1cc(-c2ccc(F)cn2)cn1)C(=O)c1cc(Cl)ccc1-n1nccn1 [Example 55, 5-Chloro-N-ethyl-N-{2-[4-(5-fluoropyridin-2-yl)-1H-pyrazol-1-yl]ethyl}-2-(2H-1,2,3-triazol-2-yl)benzamide]	2.3 nM	1.6 nM
CCN(CCn1cc(-c2ccc(F)cn2)cn1)C(=O)c1cc(F)ccc1-n1nccn1 [Example 56, N-ethyl-5-fluoro-N-{2-[4-(5-fluoropyridin-2-yl)-1H-pyrazol-1-yl]ethyl}-2-(2H-1,2,3-triazol-2-yl)benzamide]	95.9 nM	38 nM
CCN(CCn1ccc(-c2cccc(C(F)(F)F)n2)n1)C(=O)c1cc(F)ccc1-c1ncccn1 [Example 57, N-ethyl-5-fluoro-2-(pyrimidin-2-yl)-N-(2-{3-[6-(trifluoromethyl)pyridin-2-yl]-1H-pyrazol-1-yl}ethyl)benzamide]	99.5 nM	22.9 nM
CCN(CCn1ccc(-c2cc(C(F)(F)F)ccn2)n1)C(=O)c1cc(F)ccc1-c1ncccn1 [Example 61, N-ethyl-5-fluoro-2-(pyrimidin-2-yl)-N-(2-{3-[4-(trifluoromethyl)pyridin-2-yl]-1H-pyrazol-1-yl}ethyl)benzamide]	1130 nM	239 nM
